#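 Where inhibition never reached the appropriate level, the endpoint shown equals the highest concentration tested. Otherwise, values were interpolated linearly from a five-concentration, 48-hour dose response in 96-well plates. GI50: concentration for 50% inhibition of growth.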 The source made the active and inactive calls. Rule as the data show it: active = GI50 up to about 1.1 µM and inactive = higher.
# Experiments:
# Test in all cases: NCI tumour cell line growth inhibition, 48 h
# 786-0 = tested on: 786-0
# A498 = tested on: A498
# A549 = tested on: A549
# BT-549 = tested on: BT-549
# DU-145 = tested on: DU-145
# HCT-15 = tested on: HCT-15
# IGROV-1 = tested on: IGROV-1
# LOX IMVI = tested on: LOX IMVI
# MDA-MB-435 = tested on: MDA-MB-435
# NCI-H23 = tested on: NCI-H23
# NCI-H460 = tested on: NCI-H460
# NCI-H522 = tested on: NCI-H522
# OVCAR-4 = tested on: OVCAR-4
# SF-268 = tested on: SF-268
# SK-MEL-28 = tested on: SK-MEL-28
# SK-OV-3 = tested on: SK-OV-3
# SN12C = tested on: SN12C
# SW-620 = tested on: SW-620
# UACC-62 = tested on: UACC-62
# RPMI-8226 = tested on: RPMI-8226
Structure (SMILES),GI50 (786-0),GI50 (A498),GI50 (A549),GI50 (BT-549),GI50 (DU-145),GI50 (HCT-15) [µM],GI50 (IGROV-1),GI50 (LOX IMVI),GI50 (MDA-MB-435),GI50 (NCI-H23),GI50 (NCI-H460),GI50 (NCI-H522),GI50 (OVCAR-4),GI50 (SF-268),GI50 (SK-MEL-28),GI50 (SK-OV-3),GI50 (SN12C),GI50 (SW-620),GI50 (UACC-62),GI50 (RPMI-8226)
CCC(=O)Nc1ccc(/N=N/N(C)C)cc1,> 100 µM (inactive),> 100 µM (inactive),> 100 µM (inactive),> 100 µM (inactive),> 100 µM (inactive),> 100,2.87 µM (inactive),50.9 µM (inactive),> 100 µM (inactive),7.26 µM (inactive),> 100 µM (inactive),14.4 µM (inactive),> 100 µM (inactive),> 100 µM (inactive),> 100 µM (inactive),> 100 µM (inactive),> 100 µM (inactive),> 100 µM (inactive),> 100 µM (inactive),
COC(=O)[C@@H](Cc1ccccc1)N1O[C@]12CCCC[C@@H]2NC(=O)OC(C)(C)C (stereo partly specified),26.1 µM (inactive),41.8 µM (inactive),29.2 µM (inactive),18.1 µM (inactive),29.4 µM (inactive),18.4,14.7 µM (inactive),,25.8 µM (inactive),21.3 µM (inactive),25.5 µM (inactive),16.7 µM (inactive),31.6 µM (inactive),18 µM (inactive),22.1 µM (inactive),,32.3 µM (inactive),15.8 µM (inactive),23.2 µM (inactive),44.5 µM (inactive)
Cc1ccc2c(c1)C/C(=C\c1ccccc1C(=O)O)C2=O,> 100 µM (inactive),> 100 µM (inactive),> 100 µM (inactive),> 100 µM (inactive),> 100 µM (inactive),> 100,> 100 µM (inactive),> 100 µM (inactive),> 100 µM (inactive),> 100 µM (inactive),> 100 µM (inactive),> 100 µM (inactive),> 100 µM (inactive),> 100 µM (inactive),> 100 µM (inactive),,> 100 µM (inactive),> 100 µM (inactive),> 100 µM (inactive),43.7 µM (inactive)
CC(=O)N1c2ccccc2C23CCN(C)CC4C(C)OCC(C4CC2=O)C13 (stereo unspecified),> 100 µM (inactive),> 100 µM (inactive),> 100 µM (inactive),> 100 µM (inactive),> 100 µM (inactive),> 100,> 100 µM (inactive),> 100 µM (inactive),> 100 µM (inactive),> 100 µM (inactive),> 100 µM (inactive),> 100 µM (inactive),> 100 µM (inactive),> 100 µM (inactive),> 100 µM (inactive),> 100 µM (inactive),> 100 µM (inactive),> 100 µM (inactive),> 100 µM (inactive),
CC1CC(N)=Nc2ccccc2N1 (stereo unspecified),> 100 µM (inactive),,> 100 µM (inactive),> 100 µM (inactive),> 100 µM (inactive),> 100,54.2 µM (inactive),> 100 µM (inactive),> 100 µM (inactive),> 100 µM (inactive),,> 100 µM (inactive),> 100 µM (inactive),> 100 µM (inactive),> 100 µM (inactive),> 100 µM (inactive),> 100 µM (inactive),> 100 µM (inactive),> 100 µM (inactive),> 100 µM (inactive)
CCOC(=O)CO/N=C\C1=CC(=O)C2CC1C2(C)C (stereo unspecified),> 100 µM (inactive),> 100 µM (inactive),,> 100 µM (inactive),> 100 µM (inactive),> 100,> 100 µM (inactive),> 100 µM (inactive),> 100 µM (inactive),> 100 µM (inactive),,,,> 100 µM (inactive),> 100 µM (inactive),,> 100 µM (inactive),> 100 µM (inactive),> 100 µM (inactive),> 100 µM (inactive)
FC(F)(F)c1ccccc1C1SCC2=Nc3ccccc3CN21 (stereo unspecified),11.9 µM (inactive),17.1 µM (inactive),14.5 µM (inactive),19.3 µM (inactive),12.8 µM (inactive),14.1,16.1 µM (inactive),15.1 µM (inactive),22.5 µM (inactive),11.9 µM (inactive),15.7 µM (inactive),,15.4 µM (inactive),15.1 µM (inactive),19.3 µM (inactive),18.6 µM (inactive),27 µM (inactive),32.4 µM (inactive),13.2 µM (inactive),24.8 µM (inactive)
CCOP(=O)(OCC)C(N)Cc1ccc(OC)c(OC)c1 (stereo unspecified),> 100 µM (inactive),> 100 µM (inactive),> 100 µM (inactive),> 100 µM (inactive),> 100 µM (inactive),> 100,> 100 µM (inactive),,> 100 µM (inactive),> 100 µM (inactive),> 100 µM (inactive),> 100 µM (inactive),> 100 µM (inactive),> 100 µM (inactive),> 100 µM (inactive),,> 100 µM (inactive),> 100 µM (inactive),> 100 µM (inactive),> 100 µM (inactive)
COc1ccc(/C=C2/S/C(=N\c3ccccc3)N(NC(=O)Cc3ccccc3)C2=O)cc1,> 100 µM (inactive),> 100 µM (inactive),> 100 µM (inactive),> 100 µM (inactive),> 100 µM (inactive),> 100,> 100 µM (inactive),,> 100 µM (inactive),> 100 µM (inactive),> 100 µM (inactive),,74.3 µM (inactive),> 100 µM (inactive),> 100 µM (inactive),> 100 µM (inactive),> 100 µM (inactive),> 100 µM (inactive),> 100 µM (inactive),> 100 µM (inactive)
Cc1ccc(N2C(=O)C(O)=C(C(=O)C(C)(C)C)C2c2ccc([N+](=O)[O-])cc2)cc1 (stereo unspecified),16.3 µM (inactive),29.3 µM (inactive),23.6 µM (inactive),11.1 µM (inactive),28.4 µM (inactive),16.2,11.5 µM (inactive),14.9 µM (inactive),17.4 µM (inactive),15.4 µM (inactive),9.27 µM (inactive),,6.71 µM (inactive),13 µM (inactive),21.5 µM (inactive),20.8 µM (inactive),15.4 µM (inactive),,14.9 µM (inactive),10.9 µM (inactive)
N#Cc1c(N)nc2[nH]nc(N)c2c1-c1ccc(Cl)cc1,7.94 µM (inactive),0.656 µM (active),5.66 µM (inactive),2.73 µM (inactive),4.8 µM (inactive),3.82,1.84 µM (inactive),2.83 µM (inactive),5.85 µM (inactive),3.76 µM (inactive),3.15 µM (inactive),2.56 µM (inactive),8.95 µM (inactive),5.11 µM (inactive),6.95 µM (inactive),2.56 µM (inactive),3.32 µM (inactive),13.8 µM (inactive),1.42 µM (inactive),
CC(=O)NNC1=NN(C(C)=O)C2(S1)C(=O)Nc1ccc(Br)cc12 (stereo unspecified),> 100 µM (inactive),> 100 µM (inactive),> 100 µM (inactive),59.6 µM (inactive),> 100 µM (inactive),> 100,35.9 µM (inactive),> 100 µM (inactive),> 100 µM (inactive),> 100 µM (inactive),93.3 µM (inactive),> 100 µM (inactive),78.3 µM (inactive),> 100 µM (inactive),> 100 µM (inactive),,> 100 µM (inactive),,79.1 µM (inactive),> 100 µM (inactive)
OCC12C3C4C5C3C1C5C42 (stereo unspecified),> 100 µM (inactive),> 100 µM (inactive),> 100 µM (inactive),> 100 µM (inactive),> 100 µM (inactive),> 100,47.3 µM (inactive),> 100 µM (inactive),> 100 µM (inactive),> 100 µM (inactive),> 100 µM (inactive),> 100 µM (inactive),> 100 µM (inactive),> 100 µM (inactive),> 100 µM (inactive),> 100 µM (inactive),> 100 µM (inactive),> 100 µM (inactive),> 100 µM (inactive),
c1ccc(C(=NNc2nc3ccccc3o2)c2ccccn2)nc1,< 0.0254 µM (active),0.182 µM (active),0.151 µM (active),0.0908 µM (active),0.188 µM (active),0.0299,,0.122 µM (active),0.232 µM (active),0.0489 µM (active),,0.0776 µM (active),0.0261 µM (active),0.0841 µM (active),,0.0292 µM (active),0.118 µM (active),0.024 µM (active),0.0993 µM (active),0.0327 µM (active)
Cn1cnc([N+](=O)[O-])c1Sc1nc(N)nc2c1ncn2C1OC(CO)C(O)C1O (stereo unspecified),3.14 µM (inactive),,11 µM (inactive),8.41 µM (inactive),2.36 µM (inactive),6.84,12.7 µM (inactive),1.09 µM (active),1.5 µM (inactive),4.16 µM (inactive),1.69 µM (inactive),9.38 µM (inactive),16.4 µM (inactive),4.44 µM (inactive),28 µM (inactive),3.48 µM (inactive),7.11 µM (inactive),28.1 µM (inactive),2.53 µM (inactive),2.98 µM (inactive)
O=C1/C(=C/c2ccccc2)Oc2cc(O)ccc21,> 100 µM (inactive),,> 100 µM (inactive),> 100 µM (inactive),> 100 µM (inactive),> 100,> 100 µM (inactive),,> 100 µM (inactive),> 100 µM (inactive),> 100 µM (inactive),70.3 µM (inactive),> 100 µM (inactive),> 100 µM (inactive),> 100 µM (inactive),> 100 µM (inactive),> 100 µM (inactive),> 100 µM (inactive),> 100 µM (inactive),> 100 µM (inactive)
